The text below walks through data of patent US5204241A, “Glutathione-S-transferase mu as a measure of drug resistance” (Oxi-Gene Inc., priority 1990, dated 1993).

The data set has as its system glutathione transferase (GST-tSBO, identical to GST-mu). The data set is described as follows: Glutathione transferase activity of human liver cytosols (105,000 g supernatants) toward tauromustine and trans-stilbene oxide as substrates. The format is in vitro ADME. As for the experimental part: Human liver biopsies from ? 3 individuals were homogenized in 5 vol. of 0.25 M sucrose, centrifuged at 10,000 g for 15 minutes and then the resulting supernatant was re-centrifuged at 105,000 g for one hour. The 105,000 g supernatants were analyzed for glutathione transferase activity using trans-stilbene oxide (tSBO) and tauromustine as substrates. Metabolism of these substrates to glutathione conjugates was monitored by radiometric procedures involving differential organic solvent extraction, see Gill, S., Ota, J. and Hammock, B. D. Anal. Biochem. 131: 273-282 (1983), and high pressure liquid chromatography (HPLC).

Structures are written as SMILES.

Consider `CN(C)S(=O)(=O)CCNC(=O)N(CCCl)N=O` [tauromustine], for which, for the setting “human liver cytosols with GST-tSBO activity 0-10 nmo/min/mg protein (GST mu lacking)”, the “glutathione transferase activity toward tauromustine” value is given as 0-2 nmol/min/mg protein. The “glutathione transferase activity toward tauromustine (metabolism of tauromustine)” value (human liver cytosols with easily detectable GST-tSBO activity, 25-65 nmol/min/mg protein (GST mu present)) is 4-19 nmol/min/mg protein. For the same molecule, the “extent of metabolism by human liver cytosols having GST mu activity versus cytosols lacking GST mu activity” value (human liver cytosols, GST mu (+) vs (-)) is given as “metabolized to a much greater extent”.
